From article PMC8838991, “Exploring the Synergistic Anticancer Potential of Benzofuran–Oxadiazoles and Triazoles: Improved Ultrasound- and Microwave-Assisted Synthesis, Molecular Docking, Hemolytic, Thrombolytic and Anticancer Evaluation of Furan-Based Molecules” (Molecules, 2022) come the findings set out here.

SMILES strings stand for the structures. “And” between values parts separate entries of the source, which are not always exact repeats. Equal values may be shown once.

One data set deals with blood clot. Briefly: Thrombolysis assay (clot lysis). As to conditions: sample solution in DMSO, 3 h at 37 °C, ABTS positive control, triplicate. More on the design: species or system human. On the procedure:
The thrombolytic assay was performedaccording tomethodologyin the literature. A blood sample (3 mL) was collected from a healthy human donor, and 500 µL was transferred to pre-weighed, clean Eppendorf tubes. The tubes containing the blood wereweighed again andincubatedfor 1 h at 37 °C to induce clot formation. The serum was then discarded, and the tube containing theclot was weighed. An amount of 40 µL of sample solution in DMSO was added to the clot.The tubes were again incubated for 3 h at 37 °C, and the lysis resultswere observed. ABTS was used as a positivecontrol, while DMSO was used as a negative control in this assay. The experiment was performed in triplicate, and the lysis percentage was calculated using the formula below: % Age clot lysis =Initial clot weight−Final clot weight ×100/Initial clot weight

Data set [1] deals with A549 lung cancer cell line. Briefly: MTT assay, cell viability. The class given is cell-based, human. As to conditions: A549, 48 h, mean ± SD in triplicate. How it is done:
The A549 cell line was treated with synthesized compounds in a final concentration of DMSO (dimethyl sulfoxide) of less than 1%.
The cytotoxic therapeutic potential of synthesized structural hybrids was evaluated usinga standard MTT (3-(4,5-dimethylthiazol-2-yl)-2,5-diphenyltetrazolium bromide) assay. The cells of theA549 cell line were grown, overnight, in a microculture of 96-well plates. […] Following this, 150 μL of control DMSO was added to formazan crystals.The percentage of cell viability was determined viaquantified absorbance in a microplate readerat 490 nm wavelength.
On the technique in general: Tetrazolium assays rely on reduction of a dye to a coloured formazan, in cell work by metabolically active cells.

The next data set in a line: Hemolysis assay. The class given is cell-based. As to conditions: human, red blood cells (washed RBC pellet); read-out: Percentage Hemolysis ± SD. How it is done:
A fresh blood sample (5 mL) from a healthy donor was collected in an EDTA tube. The blood was transferred to microcentrifuge tubes and centrifugedfor 5 min at 1000 rpm to obtain the red blood cells (RBCs). The supernatant was then discarded, and the RBCpellet was washed three times with phosphate-buffered saline (PBS). The RBC pellet was collected after washing and 20µL of sample solution in DMSO was added. The tubes were incubated at 37 °C for 60 min. Having been removed from the incubator, the tubes were recentrifuged at 13,000 rpm for 5 min. The supernatant was collected and diluted with chilled PBS solution. Absorbance was recordedat 517 nm. […] The experiment wasconducted in triplicate, and the RBC lysis percentage was calculated using this formula [40]: % Age hemolysis =Absorbance of sample−Absorbance of negative control ×100/Absorbance of positive control

Consider `CCn1c(=NN=c2sc3cc(S(=O)(=O)O)ccc3n2CC)sc2cc(S(=O)(=O)O)ccc21` [ABTS, reference compound], for which the “Percentage Thrombolysis ± SD” value with blood clot came to 86%.

A word on the IC50: it is the point on the concentration scale where inhibition reaches its midpoint. A lower IC50 goes with greater potency in that assay. In data set [1], `N.N.[Cl][Pt][Cl]` [Cisplatin, cisplatin, reference compound] gave an IC50 of 3.88 ± 0.76 µM.

Usually melting point stands for the temperature, or range, at which the solid turns liquid. The compound `O=C(CSc1nnc(-c2cc3ccccc3o2)o1)Nc1ccccc1` [Compound 5a] registered a melting point of 212 to 214 °C. Further, in the data set “Hemolysis assay”, the hemolysis at 60 min is 3.7 ± 0.008%. Besides, the “Percentage Thrombolysis ± SD” value with blood clot was 56.8% and 56.8 ± 0.081%. Moreover, the “Percentage Cell viability A549 (Lung Cancer) ± SD” value in data set [1] came to 64.1 ± 1.72%.

With `O=C(CSc1nnc(-c2cc3ccccc3o2)o1)N1CCOCC1` [Compound 5b], the melting point was 181 to 182 °C. Moreover, in “Hemolysis assay”, the hemolysis at 60 min was determined as 22.12 ± 0.008%. In addition, the “Percentage Thrombolysis ± SD” value in the data set on blood clot is 50.7% and 50.7 ± 0.081%. In addition, in data set [1], the “Percentage Cell viability A549 (Lung Cancer) ± SD” value is listed as 45.99 ± 4.22%.

For `COc1ccccc1NC(=O)CSc1nnc(-c2cc3ccccc3o2)o1` [Compound 5d], the melting point lay within 176 to 178 °C. Also, the hemolysis at 60 min in “Hemolysis assay” was 5.02 ± 0.008%. Moreover, the “Percentage Thrombolysis ± SD” value in the data set on blood clot was 53.5% and 53.5 ± 0.081%. The “Percentage Cell viability A549 (Lung Cancer) ± SD” value in data set [1] stood at 27.49 ± 1.90%. The IC50 in data set [1] (Homo sapiens) was 6.3 ± 0.7 µM.

For the compound `CCOc1ccc(NC(=O)CSc2nnc(-c3cc4ccccc4o3)o2)cc1` [Compound 5e], the melting point lay in the range of 154 to 156 °C. For the same compound, the hemolysis at 60 min in “Hemolysis assay” came to 0.5 ± 0.008%. In addition, in the data set on blood clot, the “Percentage Thrombolysis ± SD” value was 52.4% and 52.4 ± 0.081%. For the same compound, in data set [1], the “Percentage Cell viability A549 (Lung Cancer) ± SD” value is reported as 34.47 ± 2.19%. The same compound displayed an IC50 in data set [1] (Homo sapiens) of 17.9 ± 0.46 µM.

On to `CCN(CC)C(=O)CSc1nnc(-c2cc3ccccc3o2)o1` [Compound 5g], for which the melting point fell in the range of 96 to 97 °C. The hemolysis at 60 min in “Hemolysis assay” was 4.86 ± 0.047%. Also, the “Percentage Thrombolysis ± SD” value in the data set on blood clot was 48.3% and 48.3 ± 0.081%. For the same compound, the “Percentage Cell viability A549 (Lung Cancer) ± SD” value in data set [1] is listed as 41.45 ± 4.10%.

On to `O=C(CSc1nnc(-c2cc3ccccc3o2)n1-c1ccccc1)N1CCOCC1` [Compound 7b], for which the melting point lay within 173 to 175 °C. In “Hemolysis assay”, the hemolysis at 60 min came out at 0.1 ± 0.004%. In addition, the “Percentage Thrombolysis ± SD” value in the data set with blood clot was 52.5% and 52.5 ± 0.081%. In addition, the “Percentage Cell viability A549 (Lung Cancer) ± SD” value in data set [1] amounted to 57.62 ± 4.94%.

`Cc1ccc(NC(=O)CSc2nnc(-c3cc4ccccc4o3)n2-c2ccccc2)c(C)c1` [Compound 7f] returned a melting point of 226 to 227 °C. Further, the hemolysis at 60 min in “Hemolysis assay” was 15.7 ± 0.081%. Moreover, in the data set with blood clot, the “Percentage Thrombolysis ± SD” value was 61.4% and 61.4 ± 0.081%. Moreover, in data set [1], the “Percentage Cell viability A549 (Lung Cancer) ± SD” value is given as 99.1 ± 5.04%.

In the case of `O=C(CSc1nnc(-c2cc3ccccc3o2)n1-c1ccccc1)Nc1ccc(Cl)cc1` [Compound 7g], the melting point lay within 229 to 230 °C. The hemolysis at 60 min in “Hemolysis assay” turned out to be 23.4 ± 0.081%. The “Percentage Thrombolysis ± SD” value in the data set with blood clot is 49.06% and 49.06 ± 0.047%. Further, the “Percentage Cell viability A549 (Lung Cancer) ± SD” value in data set [1] was found to be 36.26 ± 0.41%. The IC50 in data set [1] (Homo sapiens) was found to be 19.8 ± 0.54 µM.

As to `O=C(CSc1nnc(-c2cc3ccccc3o2)n1-c1ccccc1)Nc1ccc(Cl)cc1Cl` [Compound 7h], the melting point lay within 217 to 219 °C. Besides, in “Hemolysis assay”, the hemolysis at 60 min came to 14.8 ± 0.081%. In addition, the “Percentage Thrombolysis ± SD” value in the data set on blood clot was 48.1% and 48.1 ± 0.081%. The “Percentage Cell viability A549 (Lung Cancer) ± SD” value in data set [1] stood at 29.29 ± 3.98%. The compound further showed a half-maximal inhibitory concentration (IC50) in data set [1] (Homo sapiens) of 10.9 ± 0.94 µM.

Compound `C[C@@H](Oc1cc(-c2cnn(C3CCNCC3)c2)cnc1N)c1c(Cl)ccc(F)c1Cl` [Crizotinib, crizotinib, reference compound] gave an IC50 in data set [1] (Homo sapiens) of 8.54 ± 0.84 µM.
